This is an account of results in US11839601B2, “Cannabis-enriched enzymatically treated therapeutic composition” (priority 2016, dated 2023).

A short description of this data set: Storage of honey / cannabis extract blends at room temperature, cannabinoid content after storage (conversion). Format: physicochemical. The method, then: Cannabis plants of various strains were extracted using ethanol at ethanol to plant material weight/weight ratio of 8 to 1 for 30 minutes. Ethanol was removed from the extracts by evaporation under reduced pressure and the desolventized extracts were treated at 120° C. to reach complete decarboxylation. The cannabinoids content in each of the formed extracts was analyzed using HPLC.
Pure honey samples were blended with water and with the cannabis extracts to form what looked to the eye as homogeneous blends. Comparative blends were prepared by blending honey samples with extracts, but with no water addition. Cannabinoids concentrations in the blends were calculated, using the extracts compositions and the dilution by honey and water.
The blends were stored at room temperature for different durations. Then samples were taken and analyzed for cannabinoids content.

[1] abbreviates: blend of 30 gr honey + 10 gr water + extract, 11 days.
[2] abbreviates: blend of 30 gr honey + 10 gr water + extract, glucose 64 %, 11 days, initial (calculated) THC 752 ppm, CBD 749 ppm.
Where [3] appears, read: comparative blend of 30 gr honey + extract, no water, glucose 85 %, 18 days, initial (calculated) CBD 1150 ppm, THC 1050 ppm.

Each structure is given as a SMILES string.

Turning to `C=C(C)[C@@H]1CCC(C)=C[C@H]1c1c(O)cc(CCCCC)cc1O` [CBD, cannabidiol], the Conversion under setting [1] turned out to be 27. The Concentrations after storage is 547 under setting [2] and 1148 under setting [3].
For the molecule `CCCCCc1cc(O)c2c(c1)OC(C)(C)[C@@H]1CCC(C)=C[C@@H]21` [THC, tetrahydrocannabinol], the Conversion under setting [1] came out at 45. The Concentrations after storage was 414 under setting [2] and 1047 under setting [3]. Besides, the “Conversion of THC compared with CBD” value (water-diluted honey blends, 11 days) is on record as “greater than that of CBD”.
